# Calls of active or inactive are those of the source.
# Tests used:
# [1] = Trypanosoma cruzi growth suppression in host cells – NIH3T3 host cells, beta-gal luminescence, confirmation (AID 2044); type: functional, cell-based;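 also: intracellular parasites grown in NIH/3T3 mouse fibroblasts as host cells; luminescent beta-galactosidase reporter signal from transgenic T. cruzi replicating inside host cells; inhibitors lower the luminescence signal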
# [2] = NIH3T3 cell viability loss – ATP luminescence, mouse fibroblasts, counter-screen, dose response (AID 2010); type: functional, cell-based;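 also: cells exposed to compound for about 90 hours before reading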
# Cytochrome P450 2C19 = Cytochrome P450 2C19 (Homo sapiens, UniProt P33261); experiment: Cytochrome panel assay with activity outcomes. Panel member name: p450-cyp2c19 Compounds with AC50 equal or less than 10 uM are considered active; type: functional
# Cytochrome P450 1A2 = biological target: T1, Cytochrome P450 1A2 (Homo sapiens, UniProt P05177);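 also: PubChem cytochrome P450 panel assay, CYP1A2 panel member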
# T1 sequence (P05177 whole entry): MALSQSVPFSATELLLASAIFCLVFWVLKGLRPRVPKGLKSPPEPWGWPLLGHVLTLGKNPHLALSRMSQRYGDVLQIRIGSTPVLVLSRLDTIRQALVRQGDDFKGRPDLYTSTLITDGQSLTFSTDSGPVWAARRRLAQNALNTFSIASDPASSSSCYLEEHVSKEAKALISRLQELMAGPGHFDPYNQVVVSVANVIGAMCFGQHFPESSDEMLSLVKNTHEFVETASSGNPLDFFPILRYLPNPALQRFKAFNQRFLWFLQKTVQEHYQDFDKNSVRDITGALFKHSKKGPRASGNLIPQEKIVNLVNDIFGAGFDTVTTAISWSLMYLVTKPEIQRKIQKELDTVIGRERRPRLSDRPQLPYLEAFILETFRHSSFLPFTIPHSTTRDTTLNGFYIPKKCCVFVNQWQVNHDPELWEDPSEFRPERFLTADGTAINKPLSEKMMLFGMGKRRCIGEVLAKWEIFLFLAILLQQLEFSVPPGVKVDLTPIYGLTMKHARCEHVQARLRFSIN
# [3] = test system: Streptococcus sp. 'group A'; experiment: Streptococcus pyogenes SK(-)GAS viability under kanamycin – luminescence, BacTiterGlo, confirmation, counter-screen for streptokinase expression inhibitor project, dose response (AID 1900); type: functional, organism-based
# Streptococcus = experiment: GAS UMAA2166 growth inhibition – luminescence, BacTiterGlo, counter-screen for streptokinase expression inhibitor project, dose response (AID 1915); type: functional, organism-based;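 also: potency for reduction of bacterial viability or growth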
# Streptokinase A = biological target: T2, Streptokinase A (Streptococcus pyogenes serotype M1, UniProt P10520); experiment: viability-normalized secreted streptokinase activity reduction – plasminogen activation absorbance, OD405, dose response (AID 1914); type: functional, Streptococcus pyogenes M1 GAS;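 also: secreted streptokinase activity via plasminogen activation per viability signal from cell pellet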
# T2 sequence (P10520 whole entry): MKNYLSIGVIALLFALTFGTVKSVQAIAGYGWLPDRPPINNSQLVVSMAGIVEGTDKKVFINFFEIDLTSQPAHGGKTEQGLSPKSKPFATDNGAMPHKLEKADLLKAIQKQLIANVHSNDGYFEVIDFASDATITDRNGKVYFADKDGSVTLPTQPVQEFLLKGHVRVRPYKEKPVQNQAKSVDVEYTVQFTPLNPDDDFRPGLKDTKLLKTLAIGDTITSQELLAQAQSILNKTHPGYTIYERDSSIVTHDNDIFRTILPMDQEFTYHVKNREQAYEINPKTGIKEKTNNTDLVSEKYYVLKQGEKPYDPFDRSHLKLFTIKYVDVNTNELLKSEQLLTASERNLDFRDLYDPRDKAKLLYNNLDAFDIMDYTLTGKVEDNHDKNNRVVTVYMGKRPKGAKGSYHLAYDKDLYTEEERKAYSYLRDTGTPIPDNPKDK
# Cytochrome P450 2C9 = Cytochrome P450 2C9 (Homo sapiens, UniProt P11712)
# Sequence of Cytochrome P450 2C9 (P11712 whole entry): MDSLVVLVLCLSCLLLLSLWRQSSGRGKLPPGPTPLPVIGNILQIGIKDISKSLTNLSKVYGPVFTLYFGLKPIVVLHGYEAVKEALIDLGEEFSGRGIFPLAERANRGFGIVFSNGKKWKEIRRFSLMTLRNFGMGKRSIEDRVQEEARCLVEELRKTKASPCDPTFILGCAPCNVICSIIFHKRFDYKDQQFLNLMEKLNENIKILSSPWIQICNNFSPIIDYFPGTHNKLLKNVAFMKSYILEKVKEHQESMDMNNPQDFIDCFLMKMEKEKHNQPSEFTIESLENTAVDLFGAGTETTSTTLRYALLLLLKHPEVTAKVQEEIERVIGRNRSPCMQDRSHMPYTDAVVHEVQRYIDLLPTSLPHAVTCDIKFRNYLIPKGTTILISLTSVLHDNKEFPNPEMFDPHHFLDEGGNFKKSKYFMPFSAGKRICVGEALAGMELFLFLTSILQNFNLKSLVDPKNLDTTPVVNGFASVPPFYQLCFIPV
# Sequence of Cytochrome P450 2C19 (P33261 whole entry): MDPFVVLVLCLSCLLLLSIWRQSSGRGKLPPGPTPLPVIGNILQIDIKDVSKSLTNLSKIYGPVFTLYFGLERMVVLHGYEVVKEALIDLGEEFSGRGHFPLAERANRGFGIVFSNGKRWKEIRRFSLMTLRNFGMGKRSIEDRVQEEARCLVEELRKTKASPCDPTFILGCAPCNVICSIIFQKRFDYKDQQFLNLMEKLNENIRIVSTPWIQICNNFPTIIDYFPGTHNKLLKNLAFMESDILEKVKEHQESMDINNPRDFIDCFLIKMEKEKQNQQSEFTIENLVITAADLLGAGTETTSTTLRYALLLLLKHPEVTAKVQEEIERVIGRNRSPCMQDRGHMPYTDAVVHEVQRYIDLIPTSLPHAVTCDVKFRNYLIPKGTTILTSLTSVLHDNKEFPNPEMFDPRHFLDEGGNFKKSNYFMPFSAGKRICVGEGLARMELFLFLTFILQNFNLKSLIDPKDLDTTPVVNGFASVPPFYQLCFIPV
smiles,measurement,setting,value
Cc1ccccc1OCCn1cnc2cc([N+](=O)[O-])ccc2c1=O,EC50,[1],0.615 µM (active)
same,EC50,[2],> 30 µM (not active)
C[N+](C)(CCCCCC[N+](C)(C)CCCN1C(=O)c2ccccc2C1=O)CCCN1C(=O)c2ccccc2C1=O,AC50,Cytochrome P450 2C19; read-out: AC50,31.6 µM (inconclusive)
same,AC50,Cytochrome P450 1A2,31.6 µM (inconclusive)
O=C(NCCc1c[nH]c2ccccc12)[C@@H]1C[C@H]1[C@@H](NP(=O)(c1ccccc1)c1ccccc1)c1ccccc1,AC50,Cytochrome P450 1A2,15.8 µM (inconclusive)
Cc1cc2c(=O)n(Cc3ccco3)c(SCC(=O)N3CCCc4ccccc43)nc2s1,EC50,[3],20.4 µM (active)
same,EC50,Streptococcus,> 150 µM (not active)
same,EC50,Streptokinase A,31.8 µM (active)
CC(C)(CN1CCN(C(c2ccccc2)c2ccccc2)CC1)NS(=O)(=O)c1ccccc1,EC50,[1],1.7 µM (active)
same,EC50,[2],> 60 µM (not active)
CC1=CC(C)(C)Nc2ccc(CSc3ccccc3)cc21,AC50,Cytochrome P450 1A2,0.501 µM (inconclusive)
COc1ccc(-c2nc3cnc(Nc4ccccc4)nc3n(CCC#N)c2=O)cc1,AC50,Cytochrome P450 1A2,0.501 µM (inconclusive)
O=C(NCC1CCN(Cc2ccccc2Cl)CC1)Nc1cccc(Cl)c1,EC50,[3],> 150 µM (not active)
same,EC50,Streptococcus,> 150 µM (not active)
same,EC50,Streptokinase A,49.3 µM (active)
C=C1CCC2C(C)(C)[C@@H](O)CC[C@@]2(C)[C@@H]1COc1ccc2ccc(=O)oc2c1 (some centres not stated),EC50,[3],9.27 µM (active)
same,EC50,Streptococcus,> 150 µM (not active)
same,EC50,Streptokinase A,6.72 µM (active)
COc1ccccc1Nc1nc(N)nc(CSC(=S)N2CCN(c3ccccc3)CC2)n1,EC50,[1],2.57 µM (active)
same,EC50,[2],> 60 µM (not active)
CC1C(=O)C(C)C(c2ccc([N+](=O)[O-])cc2)NC1c1ccc([N+](=O)[O-])cc1 (configuration not stated),EC50,[1],0.632 µM (active)
same,EC50,[2],> 30 µM (not active)
Cc1cc(C)n2nc(C(=O)NCc3cccc(C(F)(F)F)c3)nc2n1,EC50,[1],> 60 µM (not active)
same,EC50,[2],> 60 µM (inconclusive)
CCOC(=O)C1CCCN(C(=O)c2cc3nc(-c4ccc5c(c4)OCO5)cc(C(F)(F)F)n3n2)C1 (configuration not stated),AC50,Cytochrome P450 1A2,25.1 µM (inconclusive)
CC(C)N1CCN(Cc2ccc3c(c2)Cc2ccccc2-3)CC1CCO (configuration not stated),EC50,[1],0.532 µM (active)
same,EC50,[2],7.87 µM (active)
COC(=O)[C@@]1(Cc2ccc(F)cc2)[C@H]2c3cc(C(=O)N4CCCC4)n(Cc4ccc(Cl)c(C(F)(F)F)c4)c3C[C@H]2CN1C(=O)c1ccccc1,AC50,Cytochrome P450 2C19; read-out: AC50,31.6 µM (inconclusive)
CC(=O)Nc1ccc(NC(=O)CSc2nnc(-c3ccccc3)n2Cc2ccc3c(c2)OCO3)cc1,AC50,Cytochrome P450 1A2,31.6 µM (inconclusive)
Cc1cc(Cl)ccc1OCC(=O)N/N=C1\CCCc2ccccc21,AC50,Cytochrome P450 2C9,3.55 µM (inconclusive)
same,AC50,Cytochrome P450 1A2,2.51 µM (inconclusive)
Cn1cccc1C(=O)N1CCC[C@@]2(CCN(C(c3ccccc3)c3ccccc3)C2)C1,AC50,Cytochrome P450 2C19; read-out: AC50,25.1 µM (inconclusive)
same,AC50,Cytochrome P450 2C9,39.8 µM (inconclusive)
Oc1ccc(Br)cc1/C=N/Nc1ncc(-c2ccccc2)cn1,EC50,[3],1.51 µM (active)
same,EC50,Streptococcus,2.68 µM (active)
COCCNc1nc(-c2cccc(OC)c2)nc2ccccc12,AC50,Cytochrome P450 2C19; read-out: AC50,31.6 µM (inconclusive)
O=C(O)CSCNC(=O)CC12CC3CC(CC(C3)C1)C2,AC50,Cytochrome P450 2C19; read-out: AC50,28.2 µM (inconclusive)
Cc1cc(Br)ccc1OCCN1CCCC1,EC50,[1],0.651 µM (active)
same,EC50,[2],58.7 µM (active)
Cc1cc(N)n(-c2ccccc2)n1,AC50,Cytochrome P450 2C19; read-out: AC50,2.24 µM (inconclusive)
same,AC50,Cytochrome P450 1A2,31.6 µM (inconclusive)
O=C(NCC(c1cccs1)N1CCOCC1)c1ccco1 (configuration not stated),AC50,Cytochrome P450 2C9,22.4 µM (inconclusive)
Cc1cccc(NC(=O)c2sc(Cl)nc2-c2ccccc2)c1,EC50,[3],5 µM (active)
same,EC50,Streptococcus,19.3 µM (active)
same,EC50,Streptokinase A,> 150 µM (not active)
CCc1ccc(Nc2n[n+](-c3ccccc3)c(-c3ccc(OCc4ccccc4)cc3)s2)cc1,EC50,[1],2.01 µM (active)
same,EC50,[2],> 30 µM (not active)
CC(C)CNc1nc(N)nc(O)c1NC=O,AC50,Cytochrome P450 2C19,inconclusive
Cc1[nH]c2ccc(F)cc2c1CCN(Cc1cccnc1)C(S)=NC(C)(C)C,EC50,[1],0.577 µM (active)
same,EC50,[2],> 60 µM (not active)
COc1ccc(CNc2ccnc(-c3ccc(C(=O)N(C)C)cc3)n2)c(OC)c1,AC50,Cytochrome P450 2C19; read-out: AC50,20 µM (inconclusive)
same,AC50,Cytochrome P450 1A2,12.6 µM (inconclusive)
CCn1ccnc1CN(C)Cc1cn(-c2ccc(C)cc2)nc1-c1cccc(C)c1,EC50,[1],1.92 µM (active)
same,EC50,[2],> 60 µM (not active)
CCCN(CCO)Cc1ccc(F)c(Br)c1,AC50,Cytochrome P450 2C9,0.126 µM (inconclusive)
same,AC50,Cytochrome P450 1A2,15.8 µM (inconclusive)
Cc1cc(C)c(-c2csc(NC(=O)c3cc([N+](=O)[O-])ccc3N3CCOCC3)n2)c(C)c1,EC50,[1],1.44 µM (active)
same,EC50,[2],> 30 µM (not active)
COc1cccc(Cn2c(=O)c(C)nc3cnc(Oc4cccc(Cl)c4)nc32)c1,AC50,Cytochrome P450 1A2,25.1 µM (inconclusive)
Cc1c(C(=O)OC(C)CCN(C)C)oc2ccccc12 (configuration not stated),EC50,[1],0.574 µM (active)
same,EC50,[2],> 30 µM (not active)
CNCCCCCCCCSc1nc(C(C)C)ccc1C(=O)c1cccs1,AC50,Cytochrome P450 2C9,25.1 µM (inconclusive)
O=C(O)c1ccc(N/N=C/c2ccc(-c3ccc(Br)cc3)o2)cc1,EC50,[3],4.26 µM (active)
same,EC50,Streptococcus,3.02 µM (active)
COCCn1c(C)cc(C2=NN=C(Nc3ccc(F)cc3)SC2)c1C,AC50,Cytochrome P450 1A2,11.2 µM (inconclusive)
CSc1ccccc1NC(=S)N/N=C/c1cccn1Cc1cccc(C)c1,EC50,[1],2.35 µM (active)
same,EC50,[2],> 60 µM (not active)
CCC(=O)OCN1C(=O)C=CC1=O,AC50,Cytochrome P450 2C19; read-out: AC50,0.002 µM (inconclusive)
Cc1nc2sccn2c(=O)c1Cl,AC50,Cytochrome P450 1A2,15.8 µM (inconclusive)
CC1CCN(CCCCOc2ccccc2[N+](=O)[O-])CC1,AC50,Cytochrome P450 2C19; read-out: AC50,15.8 µM (inconclusive)
Cc1cc(N)n2ncc(-c3ccc(Cl)cc3)c2n1,AC50,Cytochrome P450 2C9,31.6 µM (inconclusive)
O=C(Oc1cccc(Br)c1)c1cccnc1,AC50,Cytochrome P450 2C19; read-out: AC50,39.8 µM (inconclusive)
same,AC50,Cytochrome P450 2C9,39.8 µM (inconclusive)
CC(CC(=O)O)(CC(=O)O)c1ccccc1,AC50,Cytochrome P450 2C19,inconclusive
CC(=O)NC1(c2cccc(F)c2)CCN(CC(=O)NC(C)C)CC1,AC50,Cytochrome P450 2C19; read-out: AC50,39.8 µM (inconclusive)
NC[C@@H](O)CSCc1ccc(Cl)cc1,AC50,Cytochrome P450 2C19; read-out: AC50,0.1 µM (inconclusive)
FC(F)(F)c1cccc(NC(S)=NN=C(S)Nc2cccc(C(F)(F)F)c2)c1,EC50,[3],1.65 µM (active)
same,EC50,Streptococcus,4.04 µM (active)
COc1cc2c(cc1OC)CN(C(=O)COc1ccc(C)c(C)c1)CC2,EC50,[1],2.93 µM (active)
same,EC50,[2],> 60 µM (not active)
Clc1ccc2c(c1)C=Nc1c(NCc3ccccc3)ncnc1O2,AC50,Cytochrome P450 1A2,0.631 µM (inconclusive)
COc1ccc(N/C=C2/Sc3ccccc3NC2=O)cc1,EC50,[1],1.22 µM (active)
same,EC50,[2],> 30 µM (not active)
COC(=O)c1[nH]c2cc(OC)ccc2c1NC(=O)CCN1CCSCC1,AC50,Cytochrome P450 2C9,22.4 µM (inconclusive)
COc1cc(-c2nnc(SCC3(c4ccc(Br)cc4)OCCO3)o2)cc(OC)c1OC,AC50,Cytochrome P450 2C9,39.8 µM (inconclusive)
O=C(NNC(=S)NC(=O)c1cccnc1)c1ccc(Cl)cc1,EC50,[3],5.07 µM (active)
same,EC50,Streptococcus,11.4 µM (active)

# From ChEMBL document CHEMBL1201862, “PubChem BioAssay data set” (2004)
